Here are results for four compounds from publication PMC3179850 (Bioorganic & medicinal chemistry letters, 2009).

A value given as a limit tells only on which side of the number the result lay.

One assay concerns HIV-1MDR/JSL (R5). In words: microbe, parasite or virus in culture. Format: cell-based.
A further assay concerns HIV-1MDR/G (X4). Type of assay: cell-based.
For another assay, the system named is HIV-1MDR/MM (R5). Format: cell-based.
For a further assay, the system named is HIV-1MDR/TM (X4). Format: cell-based.
A further assay concerns the target HIV-1 protease (Human immunodeficiency virus type 1 group M subtype B, UniProt P04585). In words: HIV-1 protease enzyme inhibitory assay. Type of assay: biochemical.
In the next assay the test system is HIV-1MDR/C (X4). Type of assay: cell-based.

`CC(C)CN(C[C@@H](O)[C@H](Cc1ccccc1)NC(=O)O[C@H]1CCOC1)S(=O)(=O)c1ccc(N)cc1` [APV, Amprenavir, reference compound] came in with an IC50 with HIV-1MDR/JSL (R5) (Human immunodeficiency virus 1) of 531 ± 69 nM.
On to `Cc1ccccc1CNC(=O)[C@H]1N(C(=O)[C@@H](O)[C@H](Cc2ccccc2)NC(=O)O[C@H]2CO[C@H]3OCC[C@H]32)CSC1(C)C` [Inhibitor 3b], for which the potency over amprenavir was at least 5 fold in the assay with HIV-1MDR/G (X4); “over 2 fold” in the assay with HIV-1MDR/JSL (R5) (HIV-1MDR/JSL); at least 5 fold in the assay on HIV-1MDR/MM (R5); at least 5 fold in the assay on HIV-1MDR/TM (X4); at least 5 fold with HIV-1MDR/C (X4). Also, at HIV-1 protease (with respect to 3a, enzyme inhibition), the potency enhancement entry was “over 40 fold”.
For the compound `Cc1ccccc1CNC(=O)[C@H]1N(C[C@@H](O)[C@H](Cc2ccccc2)NC(=O)O[C@H]2CCOC2)CSC1(C)C` [Inhibitor 14a], the “reduction in enzyme inhibitory activity” value on HIV-1 protease (relative to corresponding inhibitor 3a) is listed as “over 400 fold”.
Regarding `Cc1cc(CO)ccc1CNC(=O)[C@H]1N(C(=O)[C@@H](O)[C@H](Cc2ccccc2)NC(=O)O[C@H]2CO[C@H]3OCC[C@H]32)CSC1(C)C` [Inhibitor 16c], at HIV-1 protease, the “enzyme inhibitory activity (in words)” value is “sub-nanomolar”.
